According to patent publication US20250177399A1, “COMBINATION THERAPIES” (MIRATI THERAPEUTICS, INC., priority 2021, published 2025):
Like-named read-outs stand apart in the source and are kept apart here.

How the values were obtained:
H2122 tumors [1] = conditions: for Average Tumor Volumes of H2122 Tumor Bearing Mice: Compound 478 100 mg/kg, trametinib 1 mg/kg
Experimental: Immunocompromised nude/nude mice were inoculated in the right hind flank with cells or patient derived tumor samples harboring a KRas G12C mutation. When tumor volumes reach between 200-400 mm^3 in size, the mice were divided into four groups of 5-12 mice each. The first group was administered vehicle only. […] The fourth group was orally administered the single agent dose of the KRas G12C inhibitor in combination with the single agent dose of the MEK inhibitor at the matched schedule. […] Tumor volumes were measured using a caliper every two-three days and tumor volumes are calculated by the formula: […].
For example, twenty nude/nude mice were inoculated in the right hind limb with 5×10^6 H2122 cells.

LU99 tumors = test: LU99 tumor model, Compound 478 and RO5126766 alone and in combination; type: in vivo, nude/nude mice; conditions: for Average Tumor Volumes of LU99 Tumor Bearing Mice: p.o. daily, Compound 478 30 mg/kg
Experimental: (§1) Immunocompromised nude/nude mice were inoculated in the right hind flank with cells or patient derived tumor samples harboring a KRas G12C mutation. When tumor volumes reach between 200-400 mm^3 in size, the mice were divided into four groups of 5-12 mice each. The first group was administered vehicle only. […] The fourth group was orally administered the single agent dose of the KRas G12C inhibitor in combination with the single agent dose of the MEK inhibitor at the matched schedule. […] Tumor volumes were measured using a caliper every two-three days and tumor volumes are calculated by the formula: 0.5×(Length×Width)2.

H2122 tumors [2] = test: H2122 tumor model, Compound 478 and RO5126766 alone and in combination; type: in vivo, nude/nude mice; conditions: Compound 478 100 mg/kg p.o daily, RO5126766 0.3 mg/kg p.o Q2D; for tumor growth inhibition: H2122 tumors, at Day 21
Experimental: as §1

SW1573 tumors = test: SW1573 tumor model, Compound 478 and RO5126766 alone and in combination; type: in vivo, nude/nude mice; conditions: Compound 478 100 mg/kg p.o daily, RO5126766 0.3 mg/kg p.o Q2D; for tumor growth inhibition: SW1573 tumors, at Day 20
Experimental: as §1

[3] = Study Day 1, RO5126766 0.3 mg/kg
[4] = Study Day 4, RO5126766 0.3 mg/kg
[5] = Study Day 9, RO5126766 0.3 mg/kg
[6] = Study Day 12, RO5126766 0.3 mg/kg
[7] = Study Day 15, RO5126766 0.3 mg/kg
[8] = Study Day 18, RO5126766 0.3 mg/kg

Compound | Average Tumor Volumes of H2122 Tumor Bearing Mice (H2122 tumors [1]; Study Day 1, p.o. daily) [mm^3] | Average Tumor Volumes of H2122 Tumor Bearing Mice (H2122 tumors [1]; Study Day 7, p.o. daily) [mm^3] | Average Tumor Volumes of H2122 Tumor Bearing Mice (H2122 tumors [1]; Study Day 21, p.o. daily) [mm^3] | Average Tumor Volumes of H2122 Tumor Bearing Mice (H2122 tumors [1]; Study Day 24, p.o. daily) [mm^3] | Average Tumor Volumes of H2122 Tumor Bearing Mice (H2122 tumors [1]; Study Day 32, p.o. daily) [mm^3] | Average Tumor Volumes of LU99 Tumor Bearing Mice (LU99 tumors; [3]) [mm^3] | Average Tumor Volumes of LU99 Tumor Bearing Mice (LU99 tumors; [4]) [mm^3] | Average Tumor Volumes of LU99 Tumor Bearing Mice (LU99 tumors; [5]) [mm^3] | Average Tumor Volumes of LU99 Tumor Bearing Mice (LU99 tumors; [6]) [mm^3] | Average Tumor Volumes of LU99 Tumor Bearing Mice (LU99 tumors; [7]) [mm^3] | Average Tumor Volumes of LU99 Tumor Bearing Mice (LU99 tumors; [8]) [mm^3] | tumor growth inhibition (H2122 tumors [2]) [%] | Average Tumor Volumes of H2122 Tumor Bearing Mice (H2122 tumors [2]; Study Day 0) [mm^3] | Average Tumor Volumes of H2122 Tumor Bearing Mice (H2122 tumors [2]; Study Day 2) [mm^3] | Average Tumor Volumes of H2122 Tumor Bearing Mice (H2122 tumors [2]; Study Day 7) [mm^3] | Average Tumor Volumes of H2122 Tumor Bearing Mice (H2122 tumors [2]; Study Day 9) [mm^3] | Average Tumor Volumes of H2122 Tumor Bearing Mice (H2122 tumors [2]; Study Day 14) [mm^3] | Average Tumor Volumes of H2122 Tumor Bearing Mice (H2122 tumors [2]; Study Day 17) [mm^3] | tumor growth inhibition (SW1573 tumors) [%] | Average Tumor Volumes of SW1573 Tumor Bearing Mice (SW1573 tumors; Study Day 0) [mm^3] | further results
C=C(F)C(=O)N1CCN(c2nc(OC[C@@H]3CCCN3C)nc3c2CCN(c2cccc4cccc(Cl)c24)C3)C[C@@H]1CC#N [Compound 478] | 315 | 233 | 270 | 254 | 287 | 228.8452 | 282.5161 | 219.8962 | 252.5981 | 416.0955 | 495.1032 | 91 | 213.447 | 229.5648 | 285.0973 | 326.5344 | 319.1401 | 378.2042 | 52 | 145.1243 | tumor growth regression (H2122 tumors [1]; H2122 tumors, day not given, Compound 478 100 mg/kg p.o. daily): 12%; Average Tumor Volumes of H2122 Tumor Bearing Mice (H2122 tumors [1]; Study Day 35, p.o. daily): 305 mm^3; Average Tumor Volumes of H2122 Tumor Bearing Mice (H2122 tumors [1]; Study Day 38, p.o. daily): 324 mm^3; Average Tumor Volumes of H2122 Tumor Bearing Mice (H2122 tumors [1]; Study Day 42, p.o. daily): 353 mm^3; Average Tumor Volumes of H2122 Tumor Bearing Mice (H2122 tumors [1]; Study Day 45, p.o. daily): 378 mm^3; Average Tumor Volumes of H2122 Tumor Bearing Mice (H2122 tumors [1]; Study Day 49, p.o. daily): 337 mm^3; Average Tumor Volumes of H2122 Tumor Bearing Mice (H2122 tumors [1]; Study Day 56, p.o. daily, dosing stopped on day 56): 371 mm^3; Average Tumor Volumes of H2122 Tumor Bearing Mice (H2122 tumors [1]; Study Day 63, after dosing stopped on day 56): 542 mm^3; Average Tumor Volumes of H2122 Tumor Bearing Mice (H2122 tumors [1]; Study Day 70, after dosing stopped on day 56): 802 mm^3; Average Tumor Volumes of H2122 Tumor Bearing Mice (H2122 tumors [1]; Study Day 77, after dosing stopped on day 56): 1073 mm^3; Average Tumor Volumes of H2122 Tumor Bearing Mice (H2122 tumors [1]; Study Day 85, after dosing stopped on day 56): 1294 mm^3; tumor growth inhibition (LU99 tumors; LU99 tumors, Day 18, Compound 478 30 mg/kg p.o. daily): 81%; Average Tumor Volumes of SW1573 Tumor Bearing Mice (SW1573 tumors; Study Day 3): 201.0648 mm^3; Average Tumor Volumes of SW1573 Tumor Bearing Mice (SW1573 tumors; Study Day 7): 253.1608 mm^3; Average Tumor Volumes of SW1573 Tumor Bearing Mice (SW1573 tumors; Study Day 10): 365.7683 mm^3; Average Tumor Volumes of SW1573 Tumor Bearing Mice (SW1573 tumors; Study Day 13): 394.367 mm^3; Average Tumor Volumes of SW1573 Tumor Bearing Mice (SW1573 tumors; Study Day 17): 486.729 mm^3; Average Tumor Volumes of SW1573 Tumor Bearing Mice (SW1573 tumors; Study Day 20): 534.3942 mm^3
CNS(=O)(=O)Nc1nccc(Cc2c(C)c3ccc(Oc4ncccn4)cc3oc2=O)c1F [RO5126766, 3-[[3-fluoro-2-(methylsulfamoylamino)pyridin-4-yl]methyl]-4-methyl-7-pyrimidin-2-yloxychromen-2-one, reference compound] |  |  |  |  |  | 232.1134 | 247.33 | 158.14 | 126.8378 | 181.1358 | 200.6461 | 59 | 212.4101 | 327.3898 | 463.4062 | 474.4923 | 504.5922 | 576.573 | 51 | 249.5609 | tumor regression (LU99 tumors; LU99 tumors, at Day 18, RO5126766 0.3 mg/kg, Compound 478 30 mg/kg p.o. daily): 12%; Average Tumor Volumes of H2122 Tumor Bearing Mice (H2122 tumors [2]; Study Day 21): 772.6155 mm^3; Average Tumor Volumes of SW1573 Tumor Bearing Mice (SW1573 tumors; Study Day 3): 280.2067 mm^3; Average Tumor Volumes of SW1573 Tumor Bearing Mice (SW1573 tumors; Study Day 7): 299.7596 mm^3; Average Tumor Volumes of SW1573 Tumor Bearing Mice (SW1573 tumors; Study Day 10): 395.0633 mm^3; Average Tumor Volumes of SW1573 Tumor Bearing Mice (SW1573 tumors; Study Day 13): 458.1809 mm^3; Average Tumor Volumes of SW1573 Tumor Bearing Mice (SW1573 tumors; Study Day 17): 469.133 mm^3; Average Tumor Volumes of SW1573 Tumor Bearing Mice (SW1573 tumors; Study Day 20): 480.1852 mm^3
CC(=O)Nc1cccc(-n2c(=O)n(C3CC3)c(=O)c3c(Nc4ccc(I)cc4F)n(C)c(=O)c(C)c32)c1 [Trametinib, N-(3-(3-cyclopropyl-5-((2-fluoro-4-iodophenyl)amino)-6,8-dimethyl-2,4,7-trioxo-3,4,6,7-tetrahydropyrido[4,3-d]pyrimidin-1 (2H)-yl)phenyl) acetamide, reference compound] | 301 | 447 | 667 | 778 | 816 |  |  |  |  |  |  |  |  |  |  |  |  |  |  |  | tumor growth inhibition (H2122 tumors [1]; H2122 tumors, at Day 32, trametinib 1 mg/kg p.o. daily): 60%; Average Tumor Volumes of H2122 Tumor Bearing Mice (H2122 tumors [1]; Study Day 3, p.o. daily): 385 mm^3; Average Tumor Volumes of H2122 Tumor Bearing Mice (H2122 tumors [1]; Study Day 10, p.o. daily): 462 mm^3; Average Tumor Volumes of H2122 Tumor Bearing Mice (H2122 tumors [1]; Study Day 15, p.o. daily): 534 mm^3; Average Tumor Volumes of H2122 Tumor Bearing Mice (H2122 tumors [1]; Study Day 17, p.o. daily): 582 mm^3; Average Tumor Volumes of H2122 Tumor Bearing Mice (H2122 tumors [1]; Study Day 28, p.o. daily): 673 mm^3
